Data reported in patent US10144732B2 (BIOGEN MA INC., priority 2014, dated 2018).
Where “and” joins values, the source holds several entries; their conditions need not be identical. Identical values can stand only once. Counter-ions that a name gives are not always drawn.

Molecular target: T1, Human ATX protein (Homo sapiens, UniProt Q13822)
T1 construct: made in house
Assay: ATX biochemical assay (FRET, FS-3 substrate)
Settings: FRET assay, FS-3 2 μM, ATX 1.0 μg/mL, 30 minutes preincubation, 2 hours reaction at room temperature; read-out: IC50
In short: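 FRET read-out: cleavage of FS-3 (2 μM final) unquenches fluorescein, measured at 485/538 nm after 2 h at room temperature. Before substrate addition, in-house-expressed human autotaxin (1.0 μg/mL) sat with compound for 30 min in pH 7.4 Tris/NaCl/KCl/CaCl2/MgCl2 buffer containing fatty acid free-BSA at 1 mg/mL.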

`O=C(O)C1CC(CC(=O)N2CCc3c(C(F)(F)F)nn(Cc4ccc(Cl)cc4F)c3C2)C1` (mixture of isomers) [Example 6-8, 3-(2-(1-(4-Chloro-2-fluorobenzyl)-3-(trifluoromethyl)-4,5-dihydro-1H-pyrazolo[3,4-c]pyridin-6(7H)-yl)-2-oxoethyl)cyclobutanecarboxylic acid] and `O=C(CC1CNC1)N1CCc2c(C(F)(F)F)nn(Cc3ccc(Cl)cc3F)c2C1` [Example 9-3, 2-(Azetidin-3-yl)-1-(1-(4-chloro-2-fluorobenzyl)-3-(trifluoromethyl)-4,5-dihydro-1H-pyrazolo[3,4-c]pyridin-6(7H)-yl)ethanone TFA salt] cannot be ordered by IC50: ≤ 100 nM for the first, ≤ 100 nM for the second.

`O=C(O)C[C@H]1CC[C@H](CC(=O)N2CCc3c(C(F)(F)F)nn(Cc4ccc(F)cc4)c3C2)CC1` [Example 5-48, 2-(trans-4-(2-(1-(4-Fluorobenzyl)-3-(trifluoromethyl)-4,5-dihydro-1H-pyrazolo[3,4-c]pyridin-6(7H)-yl)-2-oxoethyl)cyclohexyl)acetic acid] and `O=C(O)CC1CCN(CC(=O)N2CCc3c(C(F)(F)F)nn(Cc4ccc(F)cc4)c3C2)CC1` [Example 13-15, 2-(1-(2-(1-(4-Fluorobenzyl)-3-(trifluoromethyl)-4,5-dihydro-1H-pyrazolo[3,4-c]pyridin-6(7H)-yl)-2-oxoethyl)piperidin-4-yl)acetic acid TFA salt] cannot be ordered by IC50: ≤ 100 nM for the first, ≤ 100 nM for the second.

`CC(c1ccc(F)cc1)n1nc(C(F)(F)F)c2c1CN(C(=O)C[C@H]1CC[C@@H](C(=O)O)CC1)CC2` (stereo partly drawn) [Example 5-20, cis-4-(2-(1-(1-(4-Fluorophenyl)ethyl)-3-(trifluoromethyl)-4,5-dihydro-1H-pyrazolo[3,4-c]pyridin-6(7H)-yl)-2-oxoethyl)cyclohexanecarboxylic acid] and `CC(c1ccc(F)cc1)n1nc(C(F)(F)F)c2c1CN(C(=O)C[C@H]1CC[C@H](C(=O)O)CC1)CC2` (stereo partly drawn) [Example 5-19, trans-4-(2-(1-(1-(4-Fluorophenyl)ethyl)-3-(trifluoromethyl)-4,5-dihydro-1H-pyrazolo[3,4-c]pyridin-6(7H)-yl)-2-oxoethyl)cyclohexanecarboxylic acid] cannot be ordered by IC50: ≤ 100 nM for the first, ≤ 100 nM for the second.

`CCOC(=O)[C@H]1CC[C@H](CC(=O)N2CCc3c(C(F)(F)F)nn(Cc4ccc(C)cc4)c3C2)CC1` [Example 1-25, trans-Ethyl 4-(2-(1-(4-methylbenzyl)-3-(trifluoromethyl)-4,5-dihydro-1H-pyrazolo[3,4-c]pyridin-6(7H)-yl)-2-oxoethyl)cyclohexanecarboxylate] and `CCOC(=O)C1CCC(CC(=O)N2CCc3c(C(F)(F)F)nn(Cc4ccc(Cl)cc4)c3C2)CC1` (centres unmarked) [Example 1-8, Ethyl 4-(2-(1-(4-chlorobenzyl)-3-(trifluoromethyl)-4,5-dihydro-1H-pyrazolo[3,4-c]pyridin-6(7H)-yl)-2-oxoethyl)cyclohexanecarboxylate] cannot be ordered by IC50: ≤ 100 nM for the first, ≤ 100 nM for the second.

`COC(=O)CC1CN(CC(=O)N2CCc3c(C(F)(F)F)nn(Cc4ccc(F)cc4)c3C2)C1` [Example 12-19, Methyl 2-(1-(2-(1-(4-fluorobenzyl)-3-(trifluoromethyl)-4,5-dihydro-1H-pyrazolo[3,4-c]pyridin-6(7H)-yl)-2-oxoethyl)azetidin-3-yl)acetate TFA salt] and `CC1(C)C(NCC(=O)N2CCc3c(C(F)(F)F)nn(Cc4ccc(F)cc4)c3C2)CC1C(=O)O` (centres unmarked) [Example 13-14, 3-((2-(1-(4-Fluorobenzyl)-3-(trifluoromethyl)-4,5-dihydro-1H-pyrazolo[3,4-c]pyridin-6(7H)-yl)-2-oxoethyl)amino)-2,2-dimethylcyclobutanecarboxylic acid TFA salt] cannot be ordered by IC50: ≤ 100 nM for the first, ≤ 100 nM for the second.

`CC1(C)C(NCC(=O)N2CCc3c(C(F)(F)F)nn(Cc4ccc(Cl)cc4F)c3C2)CC1C(=O)O` (centres unmarked) [Example 13-11, 3-((2-(1-(4-Chloro-2-fluorobenzyl)-3-(trifluoromethyl)-4,5-dihydro-1H-pyrazolo[3,4-c]pyridin-6(7H)-yl)-2-oxoethyl)amino)-2,2-dimethylcyclobutanecarboxylic acid TFA salt] and `CC1(C(=O)O)CCC(CC(=O)N2CCc3c(C(F)(F)F)nn(Cc4ccc(Cl)cc4F)c3C2)CC1` (mixture of isomers) [Example 6-5, 4-(2-(1-(4-chloro-2-fluorobenzyl)-3-(trifluoromethyl)-4,5-dihydro-1H-pyrazolo[3,4-c]pyridin-6(7H)-yl)-2-oxoethyl)-1-methylcyclohexanecarboxylic acid] cannot be ordered by IC50: ≤ 100 nM for the first, ≤ 100 nM for the second.

`O=C(C[C@H]1CC[C@H](C(=O)O)CC1)N1CCc2c(C(F)(F)F)nn(Cc3ccc(Cl)cc3Cl)c2C1` [Example 7-7, trans-4-(2-(1-(2,4-Dichlorobenzyl)-3-(trifluoromethyl)-4,5-dihydro-1H-pyrazolo[3,4-c]pyridin-6(7H)-yl)-2-oxoethyl)cyclohexanecarboxylic acid] and `O=C(C[C@H]1CC[C@H](C(=O)O)CC1)N1CCc2c(C(F)(F)F)nn(Cc3ccc(Cl)s3)c2C1` [Example 5-17, trans-4-(2-(1-((5-chlorothiophen-2-yl)methyl)-3-(trifluoromethyl)-4,5-dihydro-1H-pyrazolo[3,4-c]pyridin-6(7H)-yl)-2-oxoethyl)cyclohexanecarboxylic acid] cannot be ordered by IC50: ≤ 100 nM for the first, ≤ 100 nM for the second.

`CN1CCC(CC(=O)N2CCc3c(C(F)(F)F)nn(Cc4ccc(Cl)cc4F)c3C2)CC1C(F)(F)F` (centres unmarked) [Example 10-4, 1-(1-(4-Chloro-2-fluorobenzyl)-3-(trifluoromethyl)-4,5-dihydro-1H-pyrazolo[3,4-c]pyridin-6(7H)-yl)-2-(1-methyl-2-(trifluoromethyl)piperidin-4-yl)ethanone TFA salt] and `CC1(C)CC(CC(=O)N2CCc3c(C(F)(F)F)nn(Cc4ccc(Cl)cc4F)c3C2)CCN1` (centres unmarked) [Example 9-6, 1-(1-(4-Chloro-2-fluorobenzyl)-3-(trifluoromethyl)-4,5-dihydro-1H-pyrazolo[3,4-c]pyridin-6(7H)-yl)-2-(2,2-dimethylpiperidin-4-yl)ethanone TFA salt] cannot be ordered by IC50: ≤ 100 nM for the first, ≤ 100 nM for the second.

`CN(C)c1nn(Cc2ccc(F)cc2)c2c1CCN(C(=O)C[C@H]1CC[C@H](C(=O)O)CC1)C2` [Example 5-43, trans-4-(2-(3-(Dimethylamino)-1-(4-fluorobenzyl)-4,5-dihydro-1H-pyrazolo[3,4-c]pyridin-6 (7H)-yl)-2-oxoethyl)cyclohexanecarboxylic acid] and `CCOC(=O)[C@H]1CC[C@H](CC(=O)N2CCc3c(C#N)nn(Cc4ccc(F)cc4)c3C2)CC1` [Example 1-43, trans-Ethyl 4-(2-(3-cyano-1-(4-fluorobenzyl)-4,5-dihydro-1H-pyrazolo[3,4-c]pyridin-6(7H)-yl)-2-oxoethyl)cyclohexanecarboxylate] cannot be ordered by IC50: ≤ 100 nM for the first, ≤ 100 nM for the second.

`O=C(C[C@H]1CC[C@H](C(=O)O)CC1)N1CCc2c(C(F)(F)F)nn(CCc3ccccc3)c2C1` [Example 5-16, trans-4-(2-Oxo-2-(1-phenethyl-3-(trifluoromethyl)-4,5-dihydro-1H-pyrazolo[3,4-c]pyridin-6(7H)-yl)ethyl)cyclohexanecarboxylic acid] and `O=C(C[C@H]1CC[C@H](C(=O)O)CC1)N1CCc2c(C(F)(F)F)nn(Cc3cc(F)c(F)c(F)c3)c2C1` [Example 5-33, trans-4-(2-(1-(3,4,5-Trifluorobenzyl)-3-(trifluoromethyl)-4,5-dihydro-1H-pyrazolo[3,4-c]pyridin-6(7H)-yl)-2-oxoethyl)cyclohexanecarboxylic acid] cannot be ordered by IC50: 100 to 250 nM for the first, ≤ 100 nM for the second.

`O=C(O)[C@H]1C2C3C[C@@H]1C(CC(=O)N1CCc4c(C(F)(F)F)nn(Cc5ccc(Cl)cc5F)c4C1)C32` (stereo partly drawn) [Example 6-16, (3R,4R)-5-(2-(1-(4-Chloro-2-fluorobenzyl)-3-(trifluoromethyl)-4,5-dihydro-1H-pyrazolo[3,4-c]pyridin-6(7H)-yl)-2-oxoethyl)tricyclo[2.2.1.02,6]heptane-3-carboxylic acid] and `O=C(CC1CC2CNCC2C1)N1CCc2c(C(F)(F)F)nn(Cc3ccc(Cl)cc3F)c2C1` (centres unmarked) [Example 9-21, 1-(1-(4-Chloro-2-fluorobenzyl)-3-(trifluoromethyl)-4,5-dihydro-1H-pyrazolo[3,4-c]pyridin-6(7H)-yl)-2-(octahydrocyclopenta[c]pyrrol-5-yl)ethanone TFA salt] cannot be ordered by IC50: ≤ 100 nM for the first, ≤ 100 nM for the second.

`CCOC(=O)[C@H]1CC[C@@H](CC(=O)N2CCc3c(C(F)(F)F)nn(Cc4ccc(Cl)cc4F)c3C2)CC1` [Example 2-2, cis-Ethyl 4-(2-(1-(4-chloro-2-fluorobenzyl)-3-(trifluoromethyl)-4,5-dihydro-1H-pyrazolo[3,4-c]pyridin-6(7H)-yl)-2-oxoethyl)cyclohexanecarboxylate] and `O=C(N[C@H]1CC[C@@H](C(=O)O)CC1)N1CCc2c(C(F)(F)F)nn(Cc3ccc(Cl)cc3F)c2C1` [Example 5-6, cis-4-(1-(4-chloro-2-fluorobenzyl)-3-(trifluoromethyl)-4,5,6,7-tetrahydro-1H-pyrazolo[3,4-c]pyridine-6-carboxamido)cyclohexanecarboxylic acid] cannot be ordered by IC50: ≤ 100 nM for the first, ≤ 100 nM for the second.

For `COC(=O)[C@H]1CC[C@@H](N(C)C(=O)N2CCc3c(C(F)(F)F)nn(Cc4ccc(Cl)cc4F)c3C2)CC1` [Example 3-3, cis-Methyl 4-(1-(4-chloro-2-fluorobenzyl)-N-methyl-3-(trifluoromethyl)-4,5,6,7-tetrahydro-1H-pyrazolo[3,4-c]pyridine-6-carboxamido)cyclohexanecarboxylate], the IC50 was > 500 nM and ≤ 10000 nM.

Same assay, conditions: IC50, FRET assay, FS-3 2 μM, ATX 1.0 μg/mL, 30 minutes preincubation, 2 hours reaction at room temperature

With `O=C(O)C1CC2CCC(C1)N2CC(=O)N1CCc2c(C(F)(F)F)nn(Cc3ccc(Cl)cc3F)c2C1` (centres unmarked) [Example 13-4, 8-(2-(1-(4-Chloro-2-fluorobenzyl)-3-(trifluoromethyl)-4,5-dihydro-1H-pyrazolo[3,4-c]pyridin-6(7H)-yl)-2-oxoethyl)-8-azabicyclo[3.2.1]octane-3-carboxylic acid] the IC50 was ≤ 100 nM.
